From patent publication US20240262826A1, “WILD TYPE KIT INHIBITORS” (Blueprint Medicines Corporation, priority 2022, published 2024)

target: wild type c-kit (Homo sapiens (Human), UniProt P10721); test: PathScan phospho c-kit (Tyr719) sandwich ELISA in SCF-stimulated M-07e cells (pKIT assay); format: cell-based; details: ELISA assay (values not marked *)
Description: The ability of compounds of the disclosure (described herein as test compounds) to inhibit autophosphorylation of wild type c-kit was measures using either a PathScan phospho c-kit (Tyr719) sandwich ELISA (CST #7298) or a Phospho c-Kit (Tyr721) Assay Whole Cell Lysate Kit (MSD: 515DPD/catalog number K15119D-2).
For the PathScan phospho c-kit (Tyr719) sandwich ELISA: M-07e cells were resuspended at 2×10^6 cells/mL in phenol red free, serum-free, GM-CSF-free Iscove's Modified Dulbecco's Medium (IMDM) media with 1% Penicillin-Streptomycin. The cells were then dispensed into the wells of a U-bottom, 96-well plate at 50 uL per well using a multichannel pipet. The plate was allowed to incubate at 37° C. in a humidified tissue culture incubator for 4 hours.
After 4 hours of incubation, each well was dosed with 6.25 uL of test compound at a final DMSO concentration of 0.25% for 60 min at 37° C. to generate an 8-point dose concentration series of test compounds in duplicate. Cells were then incubated for 1 hour at 37° C. in a humidified tissue culture incubator. Next, human SCF at 500 ng/mL was added to the appropriate wells at 6.25 uL/well and the plate was shaken at 450 rpm at room temperature for 10 minutes. AlphaLISA 5× Lysis Buffer supplemented with 1× protease and phosphatase inhibitor was then added at 16 uL/well. The plate was sealed with an adherent cover and shaken at 4° C. at 600 rpm for 30 minutes. After this period of lysis, the plate was stored at −80° C.
When the 96-well plate containing M07e lysates was ready to be processed, the plate was brought to room temperature and 40 μl from each well was transferred to the wells of a PathScan Phospho-c-Kit (Tyr719) Sandwich ELISA plate (CST, Catalog #7298). The ELISA plate was sealed with an adherent cover and incubated for 2 hours at 37° C. Next, the wells were washed 4 times with the provided 1× Wash Buffer, and 100 uL/well of reconstituted Detection Antibody was added to each well, the plate sealed with an adherent cover, and incubated at 37° C. for 1 hour. The wash procedure was repeated and 100 uL/well of reconstituted HRP-Linked secondary antibody was added. The plate was sealed with an adherent cover and incubated at 37° C. for 1 hour. The wash procedure was repeated and 100 uL/well of TMB Substrate was added. The plate was incubated for 10 minutes at room temperature or until the positive reaction elicited a blue color in the appropriate wells. 100 uL/well of STOP solution was added and shaken gently for a few seconds a microplate reader or conventional spectrophotometer e.g., a Perkin Elmer Envision multimode plate reader, part #2105-0010.
An IC50 was calculated using a 4-parameter logistic nonlinear regression.

wild type c-kit, sequence (P10721 26-976): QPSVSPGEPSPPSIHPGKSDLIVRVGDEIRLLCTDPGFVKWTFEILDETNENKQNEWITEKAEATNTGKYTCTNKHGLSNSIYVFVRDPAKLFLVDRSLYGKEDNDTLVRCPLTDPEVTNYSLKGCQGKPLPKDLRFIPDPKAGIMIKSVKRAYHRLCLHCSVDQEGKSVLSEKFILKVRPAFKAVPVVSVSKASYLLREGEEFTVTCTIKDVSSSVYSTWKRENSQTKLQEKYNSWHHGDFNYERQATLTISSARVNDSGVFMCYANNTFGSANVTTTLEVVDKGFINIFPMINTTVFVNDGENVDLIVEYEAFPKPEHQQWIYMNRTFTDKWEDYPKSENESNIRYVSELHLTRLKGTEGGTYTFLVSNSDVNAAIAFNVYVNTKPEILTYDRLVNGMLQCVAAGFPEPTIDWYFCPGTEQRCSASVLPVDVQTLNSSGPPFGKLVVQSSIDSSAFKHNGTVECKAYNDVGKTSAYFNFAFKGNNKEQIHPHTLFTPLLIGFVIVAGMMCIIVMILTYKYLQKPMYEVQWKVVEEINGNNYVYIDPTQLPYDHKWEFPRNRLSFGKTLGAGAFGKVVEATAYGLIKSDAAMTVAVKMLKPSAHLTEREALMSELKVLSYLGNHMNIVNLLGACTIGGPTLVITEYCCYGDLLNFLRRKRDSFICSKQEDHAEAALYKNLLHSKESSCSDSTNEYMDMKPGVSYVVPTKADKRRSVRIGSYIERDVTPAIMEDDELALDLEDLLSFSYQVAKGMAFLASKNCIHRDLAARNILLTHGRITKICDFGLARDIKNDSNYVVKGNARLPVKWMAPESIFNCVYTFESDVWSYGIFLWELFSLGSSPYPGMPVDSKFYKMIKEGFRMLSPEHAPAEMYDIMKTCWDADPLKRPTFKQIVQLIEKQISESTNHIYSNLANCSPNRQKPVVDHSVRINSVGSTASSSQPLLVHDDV

IC50 | SMILES
8.6 nM | Cc1ccc(-c2nnn(C3CC(F)(F)C3)n2)cc1NC(=O)c1cnn2ccc(N3CC[C@@](C)(O)C3)cc12 (single isomer, unassigned) [Example 86, (S)—N-(5-(2-(3,3-difluorocyclobutyl)-2H-tetrazol-5-yl)-2-methylphenyl)-5-(3-hydroxy-3-methylpyrrolidin-1-yl)pyrazolo[1,5-a]pyridine-3-carboxamide or (R)—N-(5-(2-(3,3-difluorocyclobutyl)-2H-tetrazol-5-yl)-2-methylphenyl)-5-(3-hydroxy-3-methylpyrrolidin-1-yl)pyrazolo[1,5-a]pyridine-3-carboxamide]
3.4 nM | COCCNc1ccn2ncc(C(=O)Nc3cc(-c4nnn(C[C@@H]5CC5(F)F)n4)ccc3C)c2c1 (single isomer, unassigned) [Example 123, (S)-N-(5-(2-((2,2-difluorocyclopropyl)methyl)-2H-tetrazol-5-yl)-2-methylphenyl)-5-((2-methoxyethyl)amino)pyrazolo[1,5-a]pyridine-3-carboxamide or (R)-N-(5-(2-((2,2-difluorocyclopropyl)methyl)-2H-tetrazol-5-yl)-2-methylphenyl)-5-((2-methoxyethyl)amino)pyrazolo[1,5-a]pyridine-3-carboxamide]
1.8 nM | COCCNc1ccn2ncc(C(=O)Nc3cc(-c4nnn(C[C@H]5CC5(F)F)n4)ccc3C)c2c1 (single isomer, unassigned) [Example 124, (R)-N-(5-(2-((2,2-difluorocyclopropyl)methyl)-2H-tetrazol-5-yl)-2-methylphenyl)-5-((2-methoxyethyl)amino)pyrazolo[1,5-a]pyridine-3-carboxamide or (S)-N-(5-(2-((2,2-difluorocyclopropyl)methyl)-2H-tetrazol-5-yl)-2-methylphenyl)-5-((2-methoxyethyl)amino)pyrazolo[1,5-a]pyridine-3-carboxamide]
2.6 nM | Cc1ccc(-n2nnc([C@H]3CC3(F)F)n2)cc1NC(=O)c1cnn2ccc(-c3cnn(CCO)c3)cc12 (single isomer, unassigned) [Example 211, (R)-N-(5-(5-(2,2-difluorocyclopropyl)-2H-tetrazol-2-yl)-2-methylphenyl)-5-(1-(2-hydroxyethyl)-1H-pyrazol-4-yl)pyrazolo[1,5-a]pyridine-3-carboxamide or (S)-N-(5-(5-(2,2-difluorocyclopropyl)-2H-tetrazol-2-yl)-2-methylphenyl)-5-(1-(2-hydroxyethyl)-1H-pyrazol-4-yl)pyrazolo[1,5-a]pyridine-3-carboxamide]
0.7 nM | COC[C@@](C)(O)Cn1cc(-c2ccn3ncc(C(=O)Nc4cc(-c5nnn(C6CC6)n5)c(F)cc4C)c3c2)c(C)n1 (single isomer, unassigned) [Example 249, (S)-N-(5-(2-cyclopropyl-2H-tetrazol-5-yl)-4-fluoro-2-methylphenyl)-5-(1-(2-hydroxy-3-methoxy-2-methylpropyl)-3-methyl-1H-pyrazol-4-yl)pyrazolo[1,5-a]pyridine-3-carboxamide or (R)-N-(5-(2-cyclopropyl-2H-tetrazol-5-yl)-4-fluoro-2-methylphenyl)-5-(1-(2-hydroxy-3-methoxy-2-methylpropyl)-3-methyl-1H-pyrazol-4-yl)pyrazolo[1,5-a]pyridine-3-carboxamide]
0.3 nM | Cc1ccc(-c2nnn(C3CC3)n2)cc1NC(=O)c1cnn2ccc(-c3cn([C@H](C)[C@H](C)O)nc3C)cc12 (single isomer, unassigned) [Example 269, N-(5-(2-cyclopropyl-2H-tetrazol-5-yl)-2-methylphenyl)-5-(1-((2R,3S)-3-hydroxybutan-2-yl)-3-methyl-1H-pyrazol-4-yl)pyrazolo[1,5-a]pyridine-3-carboxamide or N-(5-(2-cyclopropyl-2H-tetrazol-5-yl)-2-methylphenyl)-5-(1-((2S,3R)-3-hydroxybutan-2-yl)-3-methyl-1H-pyrazol-4-yl)pyrazolo[1,5-a]pyridine-3-carboxamide]
0.5 nM | Cc1ccc(-c2nnn(C3CC3)n2)cc1NC(=O)c1cnn2ccc(-c3cnn([C@@H](C)[C@H](C)O)c3C)cc12 (single isomer, unassigned) [Example 270, N-(5-(2-cyclopropyl-2H-tetrazol-5-yl)-2-methylphenyl)-5-(1-((2S,3S)-3-hydroxybutan-2-yl)-5-methyl-1H-pyrazol-4-yl)pyrazolo[1,5-a]pyridine-3-carboxamide or N-(5-(2-cyclopropyl-2H-tetrazol-5-yl)-2-methylphenyl)-5-(1-((2R,3R)-3-hydroxybutan-2-yl)-5-methyl-1H-pyrazol-4-yl)pyrazolo[1,5-a]pyridine-3-carboxamide]
0.9 nM | Cc1nn([C@H](C)[C@@H](C)O)cc1-c1ccn2ncc(C(=O)Nc3cc(-c4nnn(C5CC5)n4)c(F)cc3Cl)c2c1 (single isomer, unassigned) [Example 287, N-(2-chloro-5-(2-cyclopropyl-2H-tetrazol-5-yl)-4-fluorophenyl)-5-(1-((2R,3R)-3-hydroxybutan-2-yl)-3-methyl-1H-pyrazol-4-yl)pyrazolo[1,5-a]pyridine-3-carboxamide or N-(2-chloro-5-(2-cyclopropyl-2H-tetrazol-5-yl)-4-fluorophenyl)-5-(1-((2S,3S)-3-hydroxybutan-2-yl)-3-methyl-1H-pyrazol-4-yl)pyrazolo[1,5-a]pyridine-3-carboxamide]
0.4 nM | Cc1nn([C@@H](C)[C@H](C)O)cc1-c1ccn2ncc(C(=O)Nc3cc(-c4nnn(C5CC5)n4)c(F)cc3Cl)c2c1 (single isomer, unassigned) [Example 288, N-(2-chloro-5-(2-cyclopropyl-2H-tetrazol-5-yl)-4-fluorophenyl)-5-(1-((2S,3S)-3-hydroxybutan-2-yl)-3-methyl-1H-pyrazol-4-yl)pyrazolo[1,5-a]pyridine-3-carboxamide or N-(2-chloro-5-(2-cyclopropyl-2H-tetrazol-5-yl)-4-fluorophenyl)-5-(1-((2R,3R)-3-hydroxybutan-2-yl)-3-methyl-1H-pyrazol-4-yl)pyrazolo[1,5-a]pyridine-3-carboxamide]
0.6 nM | Cc1nn([C@H](C)[C@H](C)O)cc1-c1ccn2ncc(C(=O)Nc3cc(-c4nnn(C5CC5)n4)c(F)cc3Cl)c2c1 (single isomer, unassigned) [Example 289, N-(2-chloro-5-(2-cyclopropyl-2H-tetrazol-5-yl)-4-fluorophenyl)-5-(1-((2R,3S)-3-hydroxybutan-2-yl)-3-methyl-1H-pyrazol-4-yl)pyrazolo[1,5-a]pyridine-3-carboxamide or N-(2-chloro-5-(2-cyclopropyl-2H-tetrazol-5-yl)-4-fluorophenyl)-5-(1-((2S,3R)-3-hydroxybutan-2-yl)-3-methyl-1H-pyrazol-4-yl)pyrazolo[1,5-a]pyridine-3-carboxamide]
47.4 nM | COCC(C)Nc1ccn2ncc(C(=O)Nc3cc(-c4nnn(C5CN(C(=O)OC)C5)n4)ccc3C)c2c1 (stereo in doubt) [Example 128, methyl (S)-3-(5-(3-(5-((1-methoxypropan-2-yl)amino)pyrazolo[1,5-a]pyridine-3-carboxamido)-4-methylphenyl)-2H-tetrazol-2-yl)azetidine-1-carboxylate]
3.8 nM | Cc1ccc(-c2nnn(CCCC(F)(F)F)n2)cc1NC(=O)c1cnn2ccccc12 [Example 1, N-(2-methyl-5-(2-(4,4,4-trifluorobutyl)-2H-tetrazol-5-yl)phenyl)pyrazolo[1,5-a]pyridine-3-carboxamide]
4.8 nM | Cc1ccc(-c2nnn(C)n2)cc1NC(=O)c1cnn2ccccc12 [Example 2, N-(2-methyl-5-(2-methyl-2H-tetrazol-5-yl)phenyl)pyrazolo[1,5-a]pyridine-3-carboxamide]
13.6 nM | Cc1ccc(-c2nnn(CC3CC3)n2)cc1NC(=O)c1cnn2ccccc12 [Example 7, N-(5-(2-(cyclopropylmethyl)-2H-tetrazol-5-yl)-2-methylphenyl)pyrazolo[1,5-a]pyridine-3-carboxamide]
4.8 nM | Cc1ccc(-c2nnn(CC3CC4(CCC4)CO3)n2)cc1NC(=O)c1cnn2ccccc12 (stereo not shown) [Example 9, N-(5-(2-((6-oxaspiro[3.4]octan-7-yl)methyl)-2H-tetrazol-5-yl)-2-methylphenyl)pyrazolo[1,5-a]pyridine-3-carboxamide]
3.8 nM | Cc1ccc(-c2nnn(CC3CC4(CC4)CO3)n2)cc1NC(=O)c1cnn2ccccc12 (stereo not shown) [Example 10, N-(5-(2-((5-oxaspiro[2.4]heptan-6-yl)methyl)-2H-tetrazol-5-yl)-2-methylphenyl)pyrazolo[1,5-a]pyridine-3-carboxamide]
